Where a name gives a salt, the structure may show the parent alone.
Key:
carbonic anhydrase = carbonic anhydrase inhibition (concentration for 50% inhibition); type: biochemical; details: carbonic anhydrase inhibitory properties; read-out: Conc. for 50% Inhibition
[1] = cited from earlier work

Row | SMILES | IC50 (carbonic anhydrase) | water solubility [1]
1 | NS(=O)(=O)c1ccc(NC(=O)[C@@H]2CCCN2)cc1 [4-(L-prolylamino)benzenesulfonamide hydrochloride] | 94.9 nM | 
2 | CC(=O)N1CCC[C@H]1C(=O)Nc1ccc(S(N)(=O)=O)cc1 [4-(N-acetyl-L-prolyl-amino)benzenesulfonamide] | 67.5 nM | 
3 | CC(=O)Nc1nnc(S(N)(=O)=O)s1 [Acetazolamide, acetazolamide] |  | about 0.01 % w/v
